From PubChem BioAssay AID264 (DTP/NCI, 2004)
Several values for one entry are separate records, joined by “and”; a condition that tells them apart may be missing. Identical values can stand only once. Records with an inconclusive call do not appear.

Tested on: nude mice, LX-1 lung xenograft intrarenal, tumor weight T/C
Experiment: NCI In Vivo Anticancer Drug Screen. Data for tumor model Human Lung LX-1 Xenograft (intrarenal inoculation) in NU/NU Swiss (nude) mice
Settings: endpoint: mean tumor weight change, higher = larger tumour
In short: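 In vivo, transplantable tumor; compound vs vehicle arms; tumor size measured; value = T/C.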

[1] = dose: 600.0 mg/kg/injection, schedule: Q04DX003 (sc), vehicle: saline
[2] = dose: 100.0 mg/kg/injection, schedule: Q04DX003 (sc), vehicle: suspension in saline
[3] = dose: 200.0 mg/kg/injection, schedule: Q04DX003 (sc), vehicle: suspension in saline
[4] = dose: 100.0 mg/kg/injection, schedule: Q04DX003 (sc), vehicle: saline
[5] = dose: 200.0 mg/kg/injection, schedule: Q04DX003 (sc), vehicle: saline
[6] = dose: 300.0 mg/kg/injection, schedule: Q04DX003 (sc), vehicle: Klucel (hydroxypropylcellulose) (HPC)
[7] = dose: 600.0 mg/kg/injection, schedule: Q04DX003 (sc), vehicle: Klucel (hydroxypropylcellulose) (HPC)
[8] = dose: 1200.0 mg/kg/injection, schedule: Q04DX003 (sc), vehicle: Klucel (hydroxypropylcellulose) (HPC)
[9] = dose: 0.25 mg/kg/injection, schedule: Q01DX010 (sc), vehicle: saline
[10] = dose: 0.5 mg/kg/injection, schedule: Q01DX010 (sc), vehicle: saline
[11] = dose: 1.0 mg/kg/injection, schedule: Q01DX010 (sc), vehicle: saline

SMILES: Cc1c2ccc3ccccc3c2c[n+]2ccccc12
- T/C (dose: 4.69 mg/kg/injection, schedule: Q04DX003 (sc), vehicle: Klucel (hydroxypropylcellulose) (HPC)): 110 % of control
- T/C (dose: 9.38 mg/kg/injection, schedule: Q04DX003 (sc), vehicle: Klucel (hydroxypropylcellulose) (HPC)): 87 % of control
- T/C (dose: 18.75 mg/kg/injection, schedule: Q04DX003 (sc), vehicle: Klucel (hydroxypropylcellulose) (HPC)): 72 % of control

SMILES: CNC(=O)n1c(N)nc(-c2ccccc2)c1-c1ccccc1
- T/C (dose: 37.5 mg/kg/injection, schedule: Q04DX003 (sc), vehicle: saline with Tween-80): 114 % of control
- T/C (dose: 75.0 mg/kg/injection, schedule: Q04DX003 (sc), vehicle: saline with Tween-80): 122 % of control
- T/C (dose: 150.0 mg/kg/injection, schedule: Q04DX003 (sc), vehicle: saline with Tween-80): 57 % of control

SMILES: Nc1n[n+](-c2ccc(Cl)cc2)no1
- T/C (dose: 25.0 mg/kg/injection, schedule: Q04DX003 (sc), vehicle: water): 102 % of control
- T/C (dose: 100.0 mg/kg/injection, schedule: Q04DX003 (sc), vehicle: water): 95 % of control

SMILES: c1cc2n(n1)CCN2
- T/C (dose: 50.0 mg/kg/injection, schedule: Q01DX010 (sc), vehicle: saline): 90 % of control and 233 % of control
- T/C (dose: 100.0 mg/kg/injection, schedule: Q01DX010 (sc), vehicle: saline): 117 % of control and 124 % of control
- T/C (dose: 200.0 mg/kg/injection, schedule: Q01DX010 (sc), vehicle: saline): 35 % of control
- T/C (dose: 333.33 mg/kg/injection, schedule: Q04DX003 (ip), vehicle: saline): 67 % of control

SMILES: CCCCCC[C@@H](O)C/C=C\CCCCCCCC(=O)OCCO
- T/C (dose: 300.0 mg/kg/injection, schedule: Q04DX003 (sc), vehicle: saline): 69 % of control
- T/C [1]: 90 % of control
- T/C (dose: 1200.0 mg/kg/injection, schedule: Q04DX003 (sc), vehicle: saline): 28 % of control
- T/C (dose: 2400.0 mg/kg/injection, schedule: Q04DX003 (sc), vehicle: saline): 50 % of control

SMILES: C=C1C(=O)OCC1C(=O)O (configuration not stated)
- T/C (dose: 50.0 mg/kg/injection, schedule: Q04DX003 (sc), vehicle: suspension in saline): 123 % of control
- T/C [2]: 95 % of control
- T/C [3]: 99 % of control

SMILES: CC(=O)OCC1OC(n2ccc(N)nc2=O)C(OC(C)=O)C1OC(C)=O (configuration not stated)
- T/C (dose: 300.0 mg/kg/injection, schedule: Q04DX003 (sc), vehicle: suspension in saline): 156 % of control
- T/C (dose: 600.0 mg/kg/injection, schedule: Q04DX003 (sc), vehicle: suspension in saline): 84 % of control
- T/C (dose: 1200.0 mg/kg/injection, schedule: Q04DX003 (sc), vehicle: suspension in saline): 23 % of control
- T/C (dose: 2400.0 mg/kg/injection, schedule: Q04DX003 (sc), vehicle: suspension in saline): 94 % of control

SMILES: O=[N+]([O-])O.[Ga]
- T/C [4]: 92 % of control
- T/C [5]: 86 % of control
- T/C (dose: 400.0 mg/kg/injection, schedule: Q04DX003 (sc), vehicle: saline): 86 % of control
- T/C (dose: 800.0 mg/kg/injection, schedule: Q04DX003 (sc), vehicle: saline): 83 % of control

SMILES: COc1c(CNC(=O)CCl)cc2[nH]c(C)cc2c1CNC(=O)CCl
- T/C (dose: 100.0 mg/kg/injection, schedule: Q01DX010 (sc), vehicle: Klucel (hydroxypropylcellulose) (HPC)): 76 % of control
- T/C (dose: 200.0 mg/kg/injection, schedule: Q01DX010 (sc), vehicle: Klucel (hydroxypropylcellulose) (HPC)): 52 % of control
- T/C [6]: 91 % of control
- T/C (dose: 400.0 mg/kg/injection, schedule: Q01DX010 (sc), vehicle: Klucel (hydroxypropylcellulose) (HPC)): 37 % of control
- T/C [7]: 90 % of control
- T/C [8]: 68 % of control

SMILES: CC(C)(C)C1CCCCC1
- T/C [6]: 94 % of control
- T/C [7]: 68 % of control
- T/C [8]: 59 % of control
- T/C (dose: 2400.0 mg/kg/injection, schedule: Q04DX003 (sc), vehicle: Klucel (hydroxypropylcellulose) (HPC)): 46 % of control

SMILES: O=[N+]([O-])/C=C\c1ccc2c(c1)OCO2
- T/C (dose: 12.5 mg/kg/injection, schedule: Q01DX010 (sc), vehicle: Klucel (hydroxypropylcellulose) (HPC)): 71 % of control
- T/C (dose: 25.0 mg/kg/injection, schedule: Q01DX010 (sc), vehicle: Klucel (hydroxypropylcellulose) (HPC)): 94 % of control
- T/C (dose: 800.0 mg/kg/injection, schedule: Q01DX010 (sc), vehicle: Klucel (hydroxypropylcellulose) (HPC)): 184 % of control

SMILES: COc1cc([C@@H]2c3cc4c(c(O)c3C[C@H]3COC(=O)[C@@H]32)OCO4)cc(OC)c1O
- T/C (dose: 0.06 mg/kg/injection, schedule: Q01DX010 (sc), vehicle: saline): 97 % of control
- T/C (dose: 0.12 mg/kg/injection, schedule: Q01DX010 (sc), vehicle: saline): 91 % of control
- T/C [9]: 74 % of control
- T/C [10]: 205 % of control
- T/C [11]: 76 % of control

SMILES: CCn1cnc2c(=S)nc[nH]c21
- T/C (dose: 150.0 mg/kg/injection, schedule: Q04DX003 (sc), vehicle: saline): 159 % of control
- T/C [1]: 224 % of control

SMILES: COc1cccc2c1C(=O)c1c(O)c3c(c(O)c1C2=O)C[C@H](O)C[C@@H]3OC1CC(N)C(O)C(C)O1 (some centres not stated)
- T/C (dose: 6.25 mg/kg/injection, schedule: Q01DX010 (sc), vehicle: saline): 25 % of control
- T/C (dose: 12.5 mg/kg/injection, schedule: Q01DX010 (sc), vehicle: saline): 336 % of control
- T/C (dose: 25.0 mg/kg/injection, schedule: Q01DX010 (sc), vehicle: saline): 101 % of control

SMILES: O=NNc1ccccn1
- T/C (dose: 0.13 mg/kg/injection, schedule: Q01DX010 (sc), vehicle: saline): 120 % of control
- T/C [9]: 309 % of control
- T/C [10]: 211 % of control
- T/C [11]: 105 % of control
- T/C (dose: 32.0 mg/kg/injection, schedule: Q01DX010 (sc), vehicle: saline): 46 % of control
- T/C (dose: 64.0 mg/kg/injection, schedule: Q01DX010 (sc), vehicle: saline): 30 % of control

SMILES: CCC(C(=O)O)C(=O)O.[NH2-].[NH2-].[Pt+2]
- T/C (dose: 37.5 mg/kg/injection, schedule: Q04DX003 (sc), vehicle: saline): 110 % of control
- T/C (dose: 75.0 mg/kg/injection, schedule: Q04DX003 (sc), vehicle: suspension in saline): 54 % of control
- T/C [4]: 92 % of control
- T/C [2]: 46 % of control
- T/C (dose: 150.0 mg/kg/injection, schedule: Q04DX003 (sc), vehicle: suspension in saline): 40 % of control
- T/C [5]: 76 % of control
- T/C [3]: 27 % of control

SMILES: CC(C)CCCCCCCCCCCCC(=O)NCC(=O)NC1C(O)C(O)C(Nc2ncnc3nc[nH]c23)OC1C(O)CO (configuration not stated)
- T/C (dose: 0.4 mg/kg/injection, schedule: Q01DX010 (sc), vehicle: saline): 84 % of control
- T/C (dose: 0.8 mg/kg/injection, schedule: Q01DX010 (sc), vehicle: saline): 62 % of control
- T/C (dose: 1.6 mg/kg/injection, schedule: Q01DX010 (sc), vehicle: saline): 48 % of control

SMILES: O=c1[nH]c(=O)n(C2CC(O)C(CO)O2)cc1F (configuration not stated)
- T/C (dose: 50.0 mg/kg/injection, schedule: Q01DX010 (sc), vehicle: water): 77 % of control
- T/C (dose: 100.0 mg/kg/injection, schedule: Q01DX010 (sc), vehicle: water): 39 % of control

SMILES: COc1cc2cc(c1Cl)N(C)C(=O)CC(OC(=O)C(C)C)C1(C)OC1C(C)C1CC(O)(NC(=O)O1)C(OC)/C=C/C=C(C)C2 (configuration not stated)
- T/C (dose: 100.0 micrograms/kg/injection, schedule: Q01DX010 (sc), vehicle: saline + alcohol): 19 % of control and 39 % of control
- T/C (dose: 200.0 micrograms/kg/injection, schedule: Q01DX010 (sc), vehicle: saline + alcohol): 44 % of control

SMILES: Nc1cc(Cl)c2[nH]cnc2n1
- T/C (dose: 200.0 mg/kg/injection, schedule: Q04DX003 (sc), vehicle: water): 121 % of control
- T/C (dose: 400.0 mg/kg/injection, schedule: Q04DX003 (sc), vehicle: water): 94 % of control

SMILES: CC(C)NC(=O)N(CCCCBr)N=O
- T/C (dose: 75.0 mg/kg/injection, schedule: Q04DX003 (sc), vehicle: Klucel (hydroxypropylcellulose) (HPC)): 95 % of control
- T/C (dose: 150.0 mg/kg/injection, schedule: Q04DX003 (sc), vehicle: Klucel (hydroxypropylcellulose) (HPC)): 52 % of control
- T/C [6]: 44 % of control

SMILES: C[C@@]12C(=O)OC(=O)[C@]1(C)[C@H]1CC[C@@H]2O1
- T/C (dose: 1.25 mg/kg/injection, schedule: Q04DX003 (sc), vehicle: Klucel (hydroxypropylcellulose) (HPC)): 113 % of control
- T/C (dose: 2.5 mg/kg/injection, schedule: Q04DX003 (sc), vehicle: Klucel (hydroxypropylcellulose) (HPC)): 86 % of control
